Source: US12384753B2, “17-beta-hydroxysteroid dehydrogenase type 13 inhibitors and methods of use thereof” (Enanta Pharmaceuticals, Inc., priority 2021, dated 2025)

molecular target: Recombinant human HSD17B13 (Homo sapiens (Human), UniProt Q7Z5P4); test: HSD17B13 rapid-fire mass spectrometry assay (RF/MS assay); format: biochemical; conditions: inhibition of HSD17B13; LTB4 10 μM, NAD+ 0.5 mM, RT 3 h; IC50 ranges A-E
How it was run: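 Product 12-oxo-LTB4 and substrate LTB4 quantified by RapidFire triple-quad MS in negative mode, giving percent conversion. Reaction: 80 nM recombinant hHSD17B13, 10 μM LTB4, 0.5 mM NAD+, compound up to 100 μM, pH 7.5, RT, 3 h. Variable-slope fit gave IC50; run in duplicate.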

Sequence of Recombinant human HSD17B13 (Q7Z5P4 20-300): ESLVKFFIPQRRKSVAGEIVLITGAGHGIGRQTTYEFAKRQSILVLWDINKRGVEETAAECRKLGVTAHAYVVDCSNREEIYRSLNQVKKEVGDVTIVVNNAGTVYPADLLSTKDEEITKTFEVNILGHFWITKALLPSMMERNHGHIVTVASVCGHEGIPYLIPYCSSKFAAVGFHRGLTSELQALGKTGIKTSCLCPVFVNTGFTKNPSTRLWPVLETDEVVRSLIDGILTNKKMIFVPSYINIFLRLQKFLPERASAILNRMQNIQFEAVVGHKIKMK

Compared with `COc1cc(C(=O)O)ccc1NS(=O)(=O)c1csc(-c2ccccc2F)n1` [Example 96], `COc1cc(C(=O)O)ccc1NS(=O)(=O)c1csc(NCc2ccccc2)n1` [Example 164] is higher in IC50: 0.1 to 0.5 µM for the first, 1 to 100 µM for the second.

`COc1cc(C(=O)O)c(F)cc1NS(=O)(=O)c1coc(-c2ccc(C3=CCC(C(F)(F)F)CC3)cc2C(F)(F)F)n1` (stereo not drawn) [Example 677] and `COc1cc(C(=O)O)c(F)cc1NS(=O)(=O)c1coc(-c2ccc(C3=CCC(C(C)C)CC3)cc2C(F)(F)F)n1` (stereo not drawn) [Example 672] cannot be ordered by IC50: less than 0.1 µM for the first, less than 0.1 µM for the second.

Compared with `COc1cc(C(=O)O)c(F)cc1NS(=O)(=O)c1csc(-c2ccc(-c3csc4ccccc34)cc2)n1` [Example 636], `COc1cc(C(=O)O)c(F)cc1NS(=O)(=O)c1csc(-c2ccc(C3=CCC(C)(C)CC3)cc2-c2ccc(F)cc2)n1` [Example 555] is higher in IC50: 0.1 to 0.5 µM for the first, 0.5 to 1 µM for the second. The first is the more potent here.

`COc1cc(C(=O)O)ccc1NS(=O)(=O)c1csc(N2CCN(C(=O)OCC3CCCCC3)CC2)n1` [Example 307, 4-((2-(4-((cyclohexylmethoxy)carbonyl)piperazin-1-yl)thiazole)-4-sulfonamido)-3-methoxybenzoic acid] and `COc1cc(C(=O)O)ccc1NS(=O)(=O)c1csc(N2CCN(c3ccccc3)CC2)n1` [Example 257] fall in the same range of IC50: 0.5 to 1 µM for the first, 0.5 to 1 µM for the second.

`COc1cc(C(=O)O)ccc1NS(=O)(=O)c1csc(-c2ccc3c(c2)OCCO3)n1` [Example 462] and `COc1cc(C(=O)O)ccc1NS(=O)(=O)c1csc(C2=CCC(C)(C)CC2)n1` [Example 454, 4-((2-(4,4-dimethylcyclohex-1-en-1-yl)thiazole)-4-sulfonamido)-3-methoxybenzoic acid] fall in the same range of IC50: 0.1 to 0.5 µM for the first, 0.1 to 0.5 µM for the second.

First: COc1cc(C(=O)O)ccc1NS(=O)(=O)c1csc(N2CCN(c3ccc(OC(F)(F)F)cc3)C(=O)C2)n1 [Example 266]
Second: COc1cc(C(=O)O)ccc1NS(=O)(=O)c1csc(C#Cc2cccs2)n1 [Example 218]
The IC50 of the first is higher: 1 to 100 µM for the first, less than 0.1 µM for the second. The second is the more potent here.

`COc1cc(C(=O)O)c(F)cc1NS(=O)(=O)c1csc(C#Cc2ccc(C)cc2)n1` [Example 220] and `COc1cc(C(=O)O)c(F)cc1NS(=O)(=O)c1csc(C#Cc2ccc(C(C)(C)C)cc2)n1` [Example 240] cannot be ordered by IC50: less than 0.1 µM for the first, less than 0.1 µM for the second.

Compared with `COc1cc(C(=O)O)ccc1NS(=O)(=O)c1ccc2ccc(S(=O)(=O)Nc3ccc(C(=O)O)cc3OC)cc2c1` [Example 162], `COc1cc(C(=O)O)ccc1NS(=O)(=O)c1ccc2occc2c1` [Example 139] is higher in IC50: 0.1 to 0.5 µM for the first, 1 to 100 µM for the second. The first is the more potent here.

First: COc1cc(C(=O)O)ccc1NS(=O)(=O)c1ccc(-c2ccc(O)cc2)s1 [Example 180]
Second: COc1cc(C(=O)O)c(F)cc1NS(=O)(=O)c1ccc(-c2ccc(Cl)cc2)s1 [Example 232]
The IC50 of the first is higher: 0.1 to 0.5 µM for the first, less than 0.1 µM for the second.

`COc1cc(C(=O)O)c(F)cc1NS(=O)(=O)c1coc(-c2ccc(C3=CCC(C)(C)CC3)cc2)n1` [Example 482] and `COc1cc(C(=O)O)c(F)cc1NS(=O)(=O)c1ncc(-c2ccc(F)cc2)s1` [Example 614] cannot be ordered by IC50: less than 0.1 µM for the first, less than 0.1 µM for the second.

`O=S(=O)(Nc1ccc(O)cc1)c1cnc(-c2ccc(F)cc2)s1` [Example 108] and `COC(=O)c1ccc(NS(=O)(=O)c2cnc(-c3ccc(F)cc3)s2)cc1C` [Example 18] fall in the same range of IC50: 1 to 100 µM for the first, 1 to 100 µM for the second.

`COc1cc(C(=O)O)c(F)cc1NS(=O)(=O)c1cnc(-c2ccc([C@H]3CC[C@@H](C(C)(C)C)CC3)cc2)s1` [Example 720] and `COc1cc(C(=O)O)c(F)cc1NS(=O)(=O)c1ccc2sc(-c3ccc(C4CCCCC4)cc3)nc2c1` [Example 629] fall in the same range of IC50: 0.1 to 0.5 µM for the first, 0.1 to 0.5 µM for the second.

First: COC/C=C/c1ccc(-c2ncc(S(=O)(=O)Nc3ccc(C(=O)O)cc3OC)s2)cc1 [Example 449, (E)-3-methoxy-4-((2-(4-(3-methoxyprop-1-en-1-yl)phenyl)thiazole)-5-sulfonamido)benzoic acid]
Second: CONC(=O)c1ccc(NS(=O)(=O)c2cnc(-c3ccc(F)cc3)s2)c(OC)c1 [Example 70]
The IC50 of the first is lower: 0.1 to 0.5 µM for the first, 1 to 100 µM for the second. The first is the more potent here.

In the case of `COc1cc(C(=O)O)ccc1NS(=O)(=O)N1Cc2nc(-c3ccc(C4CCC(C)(C)CC4)cc3)sc2C1` [Example 458], the IC50 is reported as 0.1 to 0.5 µM.
